Source: patent US10383845B2 (priority 2017, dated 2019)
“Also recorded” adds a separate entry of the source. Read-outs that look alike come from different tables or passages of the source.

Legend:
bacteria = conditions: cited from earlier work
[1] = molecular target: Vitamin K Oxide Reductase (Homo sapiens, UniProt Q9BQB6); conditions: cited from earlier work
human VKOR [2] = molecular target: T1, human VKOR (Homo sapiens, UniProt Q9BQB6); experiment: Inhibition of the human VKOR by unbound plasma Warfarin; format: in vivo; conditions: converted from ng/ml
T1 construct: from tissue
T1 sequence (Q9BQB6 whole entry): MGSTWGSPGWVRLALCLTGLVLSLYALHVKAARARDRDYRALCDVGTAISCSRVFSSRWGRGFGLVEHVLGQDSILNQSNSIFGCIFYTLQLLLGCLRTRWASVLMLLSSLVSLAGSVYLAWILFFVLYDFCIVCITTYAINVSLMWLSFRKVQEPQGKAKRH

[3] = system: bacterial VKOR of several strains of mycobacteria; conditions: cited from earlier work
[4] = Warfarin in plasma and saliva (oral fluid) of 14 patients undergoing Warfarin therapy (Lomonaco et al. 2014); format: in vivo, human; conditions: inferred from the findings of Lomonaco
[5] = system: patients suffering from chronic periodontitis; experiment: Observation of patients suffering from chronic periodontitis under continued systemic medication with Warfarin; format: in vivo, human
Description: Such observations had not been reported in the medical literature or anywhere else.

human VKOR [6] = molecular target: T1, human VKOR; conditions: cited from earlier work

Sequence of Vitamin K Oxide Reductase (Q9BQB6 whole entry): as above

Structure (SMILES): O=c1oc2ccccc2c(O)c1Cc1c(O)c2ccccc2oc1=O [Dicumarol]
- antibacterial properties (bacteria): marked antibacterial properties
- sensitivity of Vitamin K Oxide Reductase to inhibition [1]: highly sensitive to inhibition

Structure (SMILES): CC(=O)CC(c1ccccc1)c1c(O)c2ccccc2oc1=O (stereo not shown) [Warfarin]
- unbound plasma concentration sufficient for effective inhibition of the human VKOR (human VKOR [2]): ~30 nM
- concentration at which bacterial VKOR was inhibited [3]: 1.6 to 4.5 mM
- sensitivity of Vitamin K Oxide Reductase to inhibition [1]: highly sensitive to inhibition
- concentration in oral fluid sufficient to be effective [4]: less than 1×10^−7 M
- buildup of dental plaque and tartar [5]: significant decrease; also recorded: reduced
- chronic periodontitis / periodontal disease [5]: marked improvement; also recorded: significant reduction
- frequency and severity of gingival inflammation occurrences [5]: reduction; also recorded: reduced
- unbound plasma concentration sufficient for effective inhibition of the human VKOR (human VKOR [6]): 9 ± 4 ng/mL
